Experimental data: patent publication US20070134282A1, “Methods for inhibiting fungal pathogen infestation and propogation” (Stephen F. Austin State University, priority 2005, published 2007)
Values after ≈ are worked out from the molar mass of the structure shown. Where two headings read alike, the source gives them in different places.

What was measured:
[1] = system: F. oxysporum f.sp. lycopersici; conditions: mycelial growth; cited from earlier work
Alternaria mali = conditions: mycelial growth; cited from earlier work
F. oxysporum f. sp. lini = conditions: 100 ppm (100 μg/mL); cited from earlier work
F. verticillioides = conditions: cited from earlier work
Fusarium avenaceum [2] = test: mycelial growth inhibition on potato dextrose agar; type: cell-based; conditions: for inhibition at 10 µg/mL: read-out: inhibition of mycelial growth, CPT 10 μg/mL; for inhibiting fungus: at all experimental concentrations; for inhibition at 50 µg/mL / inhibition at 100 µg/mL: 672 h, day 28, read-out: inhibited fungal growth; for inhibition at 50 µg/mL: 50 μg/mL; for inhibition at 100 µg/mL: 100 μg/mL; for EC50: F. avenaceum, estimated, read-out: EC50 (effective concentration that caused 50% inhibition of mycelial growth)
Method: (§1) Alternaria alternata, Epicoccum nigrum, Pestalotia guepinii, Drechslera sp., and Fusarium avenaceum were isolated from infected leaves and roots of C. acuminata. The strains were cultured and maintained on potato dextrose agar (PDA) medium.
(§2) CPT, trifolin, and hyperoside (isolated from Camptotheca as above) were tested for their ability to inhibit these fungi, as compard with two classical fungicides, Bravo (active ingredient: chlorothalonil) and Maneb (active ingredient: manganous ethylenebis [dithiocarbamate]), as references. The concentrations of the conventional fungicides were those recommended by the manufacturers (Bravo: 10,000 μg/mL; Maneb: 3,000 μg/mL).
(§3) In addition to a negative control (0) and two fungicides as positive controls for each of the five isolated pathogens, seven levels of CPT were tested with each of the fungi and three levels of trifolin and hyperoside were tested with P. guepinii, Drechslera sp. and F. avenaceum, respectively (see FIG. 8).
(§4) Trifolin and hyperoside treatments were applied at concentrations of 50, 100, and 150 μg/mL, respectively. For all cultures, final concentrations were made in molten (50° C.) potato dextrose agar (Difco), and 10 mL aliquots were poured into Petri dishes (85 mm in diameter). Within 24 hours after pouring, each of the plates was inoculated with one of the five fungi. One 5×5 mm mycelial plug was cut from the actively growing front of a 2 week old colony, then placed with the inoculum side down in the center of each treatment plate. The cultures were incubated at 24° C. For all experiments, five replicate plates were inoculated for each treatment.
(§5) Mycelial growth on each plate was observed daily and recorded on a transparent film for the first two weeks, then recorded on the 16th, 20th, 23rd, and 28th days. Colony radii were measured along four vertical radial directions. The mean of the four measurements was calculated as the growth rate on each plate. Mean and standard error were calculated from the five replicates of each treatment. For each of the fungi, values of EC50 (effective concentration that caused 50% inhibition of mycelial growth) and MIC (the minimum inhibitory concentration) of each compound were estimated.

Epicoccum nigrum = test: mycelial growth inhibition on potato dextrose agar; type: cell-based
Method: as §1, §2, §3, §4, §5

Alternaria alternata = test: mycelial growth inhibition on potato dextrose agar; type: cell-based
Method: as §1, §2, §3, §4, §5

Drechslera sp. = test: mycelial growth inhibition on potato dextrose agar; type: cell-based; conditions: for EC50: estimated; for inhibiting fungus: at all experimental concentrations; for inhibition at 50 µg/mL: 480 h, 50 μg/mL, day 20, read-out: colonies inhibited
Method: as §1, §2, §3, §4, §5

Pestalotia guepinii [3] = test: mycelial growth inhibition on potato dextrose agar; type: cell-based
Method: as §1, §2, §3, §4, §5

Fusarium avenaceum [4] = test: mycelial growth inhibition on potato dextrose agar; type: cell-based; conditions: in vitro; at the same concentrations as the dithiocarbamate (100 ppm)
Pestalotia guepinii [5] = test: mycelial growth inhibition on potato dextrose agar; type: cell-based; conditions: for EC50: read-out: EC50 (effective concentration that caused 50% inhibition of mycelial growth); for MIC: read-out: MIC (minimal inhibitory concentration); for inhibition at 50 µg/mL: 264 h, 50 μg/mL, day 11, read-out: colonies inhibited
Botrytis cinerea = conditions: in vitro tests and TLC bioautography; Sridhar et al. (2003); cited from earlier work
[6] = at relatively higher concentrations
[7] = Drechslera sp., read-out: EC50 (effective concentration that caused 50% inhibition of mycelial growth)

For `C/C=C\c1cc(OC)c(OC)cc1OC` [β-Asarone], which MIC [1] is on record?
Its MIC is > 100 µg/mL.

What about the MIC (Alternaria mali) of the same compound?
Its MIC is > 100 µg/mL.

For `CCN(CC)C(=S)[S-].[Na+]` [N,N-diethyldithiocarbamic acid sodium salt], which inhibit growth (F. oxysporum f. sp. lini) is on record?
Its inhibit growth is 7-30%.

Which MIC (F. verticillioides) does the source give for `COc1cc(C=O)ccc1O` [Vanillin] here?
Its MIC is 600 µg/mL (≈ 3940 µM).

What does the source list for `CC[C@@]1(O)C(=O)OCc2c1cc1n(c2=O)Cc2cc3ccccc3nc2-1` [CPT, 4(S)-4-ethyl-4-hydroxy-1H-pyrano-(3′,4′:6,7) indolizino (1,2,-b) quinoline-3,14 (4H,12H)-dione]?
growth inhibition (Fusarium avenaceum [2]; CPT 125 and 150 μg/mL): completely inhibited growth; MIC (Fusarium avenaceum [2]; Fusarium avenaceum, read-out: MIC (minimal inhibitory concentration; complete inhibition)): 125 µg/mL (≈ 359 µM); inhibition at 30 µg/mL (Fusarium avenaceum [2]; Fusarium avenaceum, read-out: inhibited the rate of mycelial growth, CPT 30 μg/mL): > 60%; inhibition at 10 µg/mL (Fusarium avenaceum [2]; Fusarium avenaceum, first several days of the experiment): 70 to 80%; inhibition at 10 µg/mL (Fusarium avenaceum [2]; Fusarium avenaceum, later stages): ~40%; inhibiting fungus (Fusarium avenaceum [2]): highly effective; delayed mycelial growth (Epicoccum nigrum; CPT 10 μg/mL and 25 μg/mL, 28 days vs. 10 days for control): 280%; days to cover agar surface (Epicoccum nigrum; CPT 10 μg/mL and 25 μg/mL, control 10 days): 28 days; colonies smaller than controls (Epicoccum nigrum; CPT 10 μg/mL, day 10): 65%; colony radii (Epicoccum nigrum; CPT 25 μg/mL, day 15): 20 mm; day growth began (Epicoccum nigrum; CPT 50 μg/mL): 8th day; colony radii (Epicoccum nigrum; CPT 50 μg/mL, day 20): 8 mm; growth inhibition (Epicoccum nigrum; CPT 75 μg/mL and higher): totally inhibited growth; EC50 (Epicoccum nigrum; Epicoccum nigrum, read-out: EC50 (effective concentration that caused 50% inhibition of mycelial growth), E. nigrum, estimated): ~10 µg/mL (≈ 28.7 µM); inhibition at 50 µg/mL (Epicoccum nigrum; Epicoccum nigrum, CPT 50 μg/mL, read-out: inhibited growth): > 90%; MIC (Epicoccum nigrum; Epicoccum nigrum, E. nigrum, read-out: MIC (minimal inhibitory concentration)): 75 µg/mL (≈ 215 µM); suppressing growth (Epicoccum nigrum; [6]): effective; EC50 (Alternaria alternata; Alternaria alternata, read-out: EC50 (effective concentration that caused 50% inhibition of mycelial growth)): < 25 µg/mL; MIC (Alternaria alternata; Alternaria alternata, A. alternata, read-out: MIC (minimal inhibitory concentration)): 75 µg/mL (≈ 215 µM); inhibition at 10 µg/mL (Alternaria alternata; Alternaria alternata, CPT 10 μg/mL, read-out: colonies inhibited): 41 to 66%; days for mycelium to completely cover the agar surface (Alternaria alternata; CPT 10 μg/mL, control 13 days): 23 days; day colonies started to grow (Alternaria alternata; CPT 25 μg/mL): second day; colony expansion reduced (Alternaria alternata; CPT 25 μg/mL, 28 days vs. 13 days for control): 215%; days to cover the agar surface (Alternaria alternata; CPT 25 μg/mL, control 13 days): 28 days; colonies smaller than controls (Alternaria alternata; CPT 25 μg/mL, day 13): 52.8%; control of fungal growth (Alternaria alternata; CPT 75 μg/mL and above): totally controlled; suppressing growth (Alternaria alternata; [6]): effective; growth inhibition (Drechslera sp.; CPT 100 μg/mL and higher): completely inhibited fungal growth; inhibition compared with Bravo (Drechslera sp.; CPT at all experimental levels (10-150 μg/mL) vs Bravo 10,000 μg/mL): greater inhibition rates than Bravo; EC50 (Drechslera sp.; Drechslera, read-out: EC50 (effective concentration that caused 50% inhibition of mycelial growth), Drechslera sp.): ~10 µg/mL (≈ 28.7 µM); MIC (Drechslera sp.; Drechslera, read-out: MIC (minimal inhibitory concentration)): 100 µg/mL (≈ 287 µM); inhibiting fungus (Drechslera sp.): highly effective; reduced mycelial growth (Pestalotia guepinii [3]; CPT 10 μg/mL, 11th day): 43.5%; day colonies reached the petri dish margins (Pestalotia guepinii [3]; CPT 10 μg/mL, control 11th day): 20 days; growth inhibition (Pestalotia guepinii [3]; CPT 125 μg/mL and above): totally inhibited growth; inhibited growth (Fusarium avenaceum [4]): 70%; EC50 (Pestalotia guepinii [5]): ~10 µg/mL (≈ 28.7 µM); MIC (Pestalotia guepinii [5]): 125 µg/mL (≈ 359 µM)

What does the source list for `O=c1c(O[C@@H]2O[C@H](CO)[C@H](O)[C@H](O)[C@H]2O)c(-c2ccc(O)cc2)oc2cc(O)cc(O)c12` [trifolin, kaempferol-3-O-β-D-galactopyranoside]?
growth inhibition (Fusarium avenaceum [2]; 150 μg/mL): totally controlled the fungus during the entire experiment; inhibition at 50 µg/mL (Fusarium avenaceum [2]; Fusarium avenaceum): 35.8%; inhibition at 100 µg/mL (Fusarium avenaceum [2]; Fusarium avenaceum): 74.8%; EC50 (Fusarium avenaceum [2]; Fusarium avenaceum): 50 to 100 µg/mL (≈ 112 to 223 µM); inhibiting fungus (Fusarium avenaceum [2]): highly effective; growth inhibition (Drechslera sp.; 100 μg/mL, 28-day experiment): totally controlled the fungus; growth inhibition (Drechslera sp.; 150 μg/mL): completely inhibited growth; EC50 (Drechslera sp.; [7]): < 50 µg/mL; inhibition at 50 µg/mL (Drechslera sp.; Drechslera): 76.1%; inhibiting fungus (Drechslera sp.): highly effective; inhibited growth (Fusarium avenaceum [4]): 70%; inhibition at 50 µg/mL (Pestalotia guepinii [5]): 53.4%; EC50 (Pestalotia guepinii [5]; P. guepinii, estimated): ~50 µg/mL (≈ 112 µM); MIC (Pestalotia guepinii [5]; P. guepinii): < 125 µg/mL

With `O=c1c(O[C@@H]2O[C@H](CO)[C@H](O)[C@H](O)[C@H]2O)c(-c2ccc(O)c(O)c2)oc2cc(O)cc(O)c12` [hyperoside, quercetin-3-O-β-D-galactopyranoside] as the compound, how does the “growth inhibition” value (Fusarium avenaceum [2]; 150 μg/mL) read?
Its value is “completely inhibited fungal growth during the first four weeks”.

What about the inhibition at 50 µg/mL (Fusarium avenaceum [2]; Fusarium avenaceum) of the same compound?
The inhibition at 50 µg/mL was 31.6%.

What about the inhibition at 100 µg/mL (Fusarium avenaceum [2]; Fusarium avenaceum) of the same compound?
The inhibition at 100 µg/mL was 72.6%.

What about the EC50 (Fusarium avenaceum [2]; Fusarium avenaceum) of the same compound?
Its EC50 is 50 to 100 µg/mL (≈ 108 to 215 µM).

What about the “inhibiting fungus” value (Fusarium avenaceum [2]) of the same compound?
The value was “highly effective”.

What about the “growth inhibition” value (Drechslera sp.; 100 μg/mL, 28-day experiment) of the same compound?
The value was “little growth by day 28”.

And the “growth inhibition” value (Drechslera sp.; 150 μg/mL)?
Its value is “completely inhibited growth”.

What about the EC50 (Drechslera sp.; [7]) of the same compound?
The EC50 was < 50 µg/mL.

What about the inhibition at 50 µg/mL (Drechslera sp.; Drechslera) of the same compound?
The inhibition at 50 µg/mL was 74.3%.

What about the “inhibiting fungus” value (Drechslera sp.) of the same compound?
The value was “highly effective”.

What about the inhibited growth (Fusarium avenaceum [4]) of the same compound?
Its inhibited growth is 70%.

What about the inhibition at 50 µg/mL (Pestalotia guepinii [5]) of the same compound?
Its inhibition at 50 µg/mL is 53.8%.

And the EC50 (Pestalotia guepinii [5]; P. guepinii, estimated)?
The EC50 was ~50 µg/mL (≈ 108 µM).

What about the MIC (Pestalotia guepinii [5]; P. guepinii) of the same compound?
Its MIC is < 125 µg/mL.

For `CC(C)=CCC/C(C)=C/CO` [geraniol], which “minimum concentration (MIC)” value (Botrytis cinerea) is on record?
The value was 160 µg/mL.

For `COc1cc(C=CC=O)ccc1O` [4-hydroxy-3-methoxycinnamaldehyde], which MIC (F. verticillioides) is on record?
The MIC was 400 µg/mL (≈ 2240 µM).

For `COc1cc([C@H]2OC[C@H]3[C@@H]2CO[C@H]3c2ccc(O)c(OC)c2)ccc1O` (racemic) [(±) pinoresinol], which MIC (F. verticillioides) is on record?
Its MIC is 1,000 μg/mL.
